In paper PMC3335078, “Length and Amino Acid Sequence of Peptides Substituted for the 5-HT3A Receptor M3M4 Loop May Affect Channel Expression and Desensitization” (PLoS ONE, 2012):

Legend:
[1] = target: T1, 5-HT3A M3M4 loop SQPAEAA construct (Mus musculus, UniProt P23979); experiment: Two-electrode voltage clamp, oocytes expressing SQPAEAA loop construct; format: cell-based; details: 10 µM 5-HT, Xenopus oocytes
T1 construct: expressed in transfected cells; host or cells: Xenopus laevis oocytes injected with mRNA
T1 sequence (P23979 with tags, fused parts or gaps): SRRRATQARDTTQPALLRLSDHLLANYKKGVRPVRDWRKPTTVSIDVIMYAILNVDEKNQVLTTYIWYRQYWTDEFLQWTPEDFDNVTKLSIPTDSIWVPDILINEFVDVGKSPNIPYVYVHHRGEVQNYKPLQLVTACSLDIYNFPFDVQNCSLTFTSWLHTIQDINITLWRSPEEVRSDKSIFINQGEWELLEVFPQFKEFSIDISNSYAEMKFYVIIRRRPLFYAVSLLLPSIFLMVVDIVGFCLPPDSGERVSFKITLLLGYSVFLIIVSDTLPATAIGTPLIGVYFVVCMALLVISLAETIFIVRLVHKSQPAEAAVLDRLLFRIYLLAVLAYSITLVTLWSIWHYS
Excerpt: (§1) The mouse 5-HT3A cDNA with an N-terminal V5 epitope tag was cloned into the pXOON vector as previously described, and is referred to in this paper as “wild-type” (WT). The starting construct for all of the M3M4 loop replacement constructs used in this work was the 5-HT3A-ΔM3M4 construct formed by splicing the cytoplasmic end of M3 (M3-LVHK/QDLQRP…) to the cytoplasmic end of M4 (…WLRVGY/VLDRLL-M4). The splice was made at the site of the “/” to yield the sequence M3-LVHK/VLDRLL-M4 [34]. This removed 115 residues predicted to form the M3M4 loop.
(§2) The construction of the 5-HT3A-glvM3M4 chimera with the 5-HT3A M3M4 loop replaced by the GLIC heptapeptide M3M4 loop (SQPARAA) was described previously. Point mutations, alanine and Gly-Ser-Ala insertions into the 5-HT3A-ΔM3M4 construct were generated with the Quikchange site directed mutagenesis procedure (Stratagene, La Jolla, CA). […]
(§3) Currents were recorded under two-electrode voltage clamp from oocytes 2–5 d post-injection as described previously. […]
(§4) Desensitization rates were determined by fitting a single exponential decay function to the current data with Prism 4 software (GraphPad Software). Significant differences compared with wild-type were determined by a one-way ANOVA (p<0.05) using Dunnett's multiple comparison post-hoc test (p<0.05). […]

[2] = target: T2, 5-HT3A-A3 (M3M4 loop replaced by three alanines) (Mus musculus, UniProt P23979, DELINS338-452AAA); experiment: Two-electrode voltage clamp, oocytes expressing 5-HT3A-A3; format: cell-based
T2 construct: expressed in transfected cells; host or cells: Xenopus laevis oocytes injected with mRNA
T2 sequence (P23979 with tags, fused parts or gaps isoform P23979-2 DELINS338-452AAA limits assumed): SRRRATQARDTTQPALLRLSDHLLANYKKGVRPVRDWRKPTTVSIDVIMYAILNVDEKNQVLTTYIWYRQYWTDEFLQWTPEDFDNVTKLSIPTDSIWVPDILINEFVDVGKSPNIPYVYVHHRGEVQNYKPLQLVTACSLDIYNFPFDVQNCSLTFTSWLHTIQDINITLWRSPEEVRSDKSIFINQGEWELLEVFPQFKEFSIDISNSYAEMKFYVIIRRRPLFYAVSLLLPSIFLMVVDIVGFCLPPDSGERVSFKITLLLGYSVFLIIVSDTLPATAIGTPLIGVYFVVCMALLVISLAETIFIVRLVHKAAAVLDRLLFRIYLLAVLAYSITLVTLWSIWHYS
Excerpt: as §1
(§5) The construction of the 5-HT3A-glvM3M4 chimera with the 5-HT3A M3M4 loop replaced by the GLIC heptapeptide M3M4 loop (SQPARAA) was described previously. Point mutations, alanine and Gly-Ser-Ala insertions into the 5-HT3A-ΔM3M4 construct were generated with the Quikchange site directed mutagenesis procedure (Stratagene, La Jolla, CA). The entire coding region of all mutant constructs was verified by DNA sequencing (Albert Einstein College of Medicine DNA Sequencing Facility). The pXOON plasmid was linearized using NheI and capped mRNA prepared with T7 RNA polymerase (mMessage mMachine, Ambion, Austin, TX).
(§6) Use of Xenopus laevis in this study was carried out in strict accordance with the recommendations in the Guide for the Care and Use of Laboratory Animals of the National Institutes of Health. The protocol was approved by the Albert Einstein College of Medicine Animal Care and Use Committee (Protocol Number: 20081201). All surgery was performed under tricaine anesthesia, and all efforts were made to minimize suffering. Oocyctes were harvested from Xenopus (Nasco Science, Fort Atkinson, WI) anesthetized with 0.15% tricaine. Oocyctes were defolliculated by incubation in 2 mg ml^−1 Type 1A collagenase (Sigma-Aldrich, St. Louis, MO) in OR2 (85 mM NaCl, 2 mM KCl, 1 mM MgCl2, and 5 mM HEPES; pH adjusted to 7.5 with NaOH) for a 60 or 75 min. Oocytes were washed in OR2 and stored at 16°C in SOS medium: 100 mM NaCl, 2 mM KCl, 1 mM MgCl2, 1.8 mM CaCl2 5 mM HEPES, pH 7.5 with 100 IU ml^−1 penicillin, 100 µg ml^−1 streptomycin, and 250 ng ml^−1 amphotericin B (Invitrogen, Carlsbad, CA) and 5% horse serum (Sigma-Aldrich). 24 hrs following isolation, oocyctes were injected with 23 nl (2.3 ng) of mRNA and were kept in SOS media for 2–5 d at 16°C.
Currents were recorded under two-electrode voltage clamp from oocytes 2–5 d post-injection as described previously. […] The perfusion chamber volume was 200 µl. […]
as §4

[3] = target: T3, 5-HT3A ESQPA-M3M4 loop construct (Mus musculus, UniProt P23979); experiment: Two-electrode voltage clamp, oocytes expressing ESQPA-M3M4 loop construct; format: cell-based; details: up to 50 µM 5-HT, Xenopus oocytes
T3 construct: expressed in transfected cells; host or cells: Xenopus laevis oocytes injected with mRNA
T3 sequence (P23979 with tags, fused parts or gaps isoform P23979-2 limits assumed): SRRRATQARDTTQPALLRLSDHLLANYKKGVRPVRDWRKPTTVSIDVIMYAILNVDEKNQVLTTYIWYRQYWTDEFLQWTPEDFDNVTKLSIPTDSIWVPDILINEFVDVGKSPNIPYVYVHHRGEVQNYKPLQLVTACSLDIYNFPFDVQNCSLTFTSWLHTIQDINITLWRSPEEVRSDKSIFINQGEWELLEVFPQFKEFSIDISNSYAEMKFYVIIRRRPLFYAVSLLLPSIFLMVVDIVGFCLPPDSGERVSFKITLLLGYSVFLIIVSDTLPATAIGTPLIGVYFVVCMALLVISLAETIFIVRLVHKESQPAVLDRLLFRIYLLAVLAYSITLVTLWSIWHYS
Excerpt: as §1, §2, §3, §4

[4] = target: T4, 5-HT3A M3M4 loop SQPAARA construct (Mus musculus, UniProt P23979); experiment: Two-electrode voltage clamp, oocytes expressing SQPAARA loop construct; format: cell-based; details: 10 µM 5-HT, Xenopus oocytes
T4 construct: expressed in transfected cells; host or cells: Xenopus laevis oocytes injected with mRNA
T4 sequence (P23979 with tags, fused parts or gaps): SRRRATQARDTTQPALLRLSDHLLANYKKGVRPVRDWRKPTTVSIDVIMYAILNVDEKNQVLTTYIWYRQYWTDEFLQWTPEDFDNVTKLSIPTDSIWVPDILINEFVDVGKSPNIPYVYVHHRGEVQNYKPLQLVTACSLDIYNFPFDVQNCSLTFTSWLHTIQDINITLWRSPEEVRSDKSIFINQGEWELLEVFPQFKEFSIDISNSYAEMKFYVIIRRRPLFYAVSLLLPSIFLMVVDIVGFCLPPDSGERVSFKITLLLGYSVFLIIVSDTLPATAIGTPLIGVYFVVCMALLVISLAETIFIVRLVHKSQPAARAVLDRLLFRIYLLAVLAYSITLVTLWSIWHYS
Excerpt: as §1, §2, §3, §4

[5] = target: T5, 5-HT3A-A7 (M3M4 loop replaced by seven alanines) (Mus musculus, UniProt P23979)
T5 sequence (P23979 with tags, fused parts or gaps isoform P23979-2 limits assumed): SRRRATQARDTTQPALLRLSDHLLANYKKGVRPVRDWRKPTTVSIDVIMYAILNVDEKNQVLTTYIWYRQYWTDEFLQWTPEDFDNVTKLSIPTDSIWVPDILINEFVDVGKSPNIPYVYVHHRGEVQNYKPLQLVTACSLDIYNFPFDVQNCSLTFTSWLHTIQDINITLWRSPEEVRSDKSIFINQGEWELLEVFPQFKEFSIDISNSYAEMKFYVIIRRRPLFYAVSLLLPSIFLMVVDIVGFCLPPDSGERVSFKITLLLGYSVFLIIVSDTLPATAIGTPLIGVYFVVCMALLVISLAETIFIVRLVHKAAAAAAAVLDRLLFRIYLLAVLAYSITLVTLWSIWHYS
Excerpt: as §1, §5, §6
Currents were recorded under two-electrode voltage clamp from oocytes 2–5 d post-injection as described previously. […] The perfusion chamber volume was 200 µl. A 3 M KCl/agar bridge connected the ground electrode to the bath. The holding potential was maintained at −60 mV. […] Salts were purchased from Fisher Scientific (Hampton, NH) or Sigma-Aldrich.
Desensitization rates were determined by fitting a single exponential decay function to the current data with Prism 4 software (GraphPad Software). Significant differences compared with wild-type were determined by a one-way ANOVA (p<0.05) using Dunnett's multiple comparison post-hoc test (p<0.05). […]

5-HT3A-A7 = target: T6, 5-HT3A-A7 (Mus musculus, UniProt P23979); experiment: Radioactive 5-HT binding to oocytes expressing 5-HT3A-A7; details: 150 nM [3H]5-HT + 10 µM 5-HT, 5 min, 45 s cold wash
T6 construct: expressed in transfected cells; host or cells: Xenopus laevis oocytes injected with mRNA
Procedure: Assays were terminated by five washes with ice cold CFFR buffer, followed by solubilization of the oocytes individually with 200 µl 5% SDS. Total wash time was 45 s. […] All data points represent the average of at least fifteen individual oocytes derived from three separate oocyte isolations.
To determine the extent of non-specific binding, all binding experiments were performed in parallel with diethylpyrocarbonate-(DEPC)-treated-water injected oocytes or uninjected oocytes.

[6] = target: T7, 5-HT3A M3M4 loop GSAGSA mutant (Mus musculus, UniProt P23979); experiment: Two-electrode voltage clamp, oocytes expressing GSAGSA M3M4 mutant; format: cell-based; details: 10 µM 5-HT, Xenopus oocytes
T7 construct: expressed in transfected cells; host or cells: Xenopus laevis oocytes injected with mRNA
T7 sequence (P23979 with tags, fused parts or gaps isoform P23979-2 limits assumed, change not shown): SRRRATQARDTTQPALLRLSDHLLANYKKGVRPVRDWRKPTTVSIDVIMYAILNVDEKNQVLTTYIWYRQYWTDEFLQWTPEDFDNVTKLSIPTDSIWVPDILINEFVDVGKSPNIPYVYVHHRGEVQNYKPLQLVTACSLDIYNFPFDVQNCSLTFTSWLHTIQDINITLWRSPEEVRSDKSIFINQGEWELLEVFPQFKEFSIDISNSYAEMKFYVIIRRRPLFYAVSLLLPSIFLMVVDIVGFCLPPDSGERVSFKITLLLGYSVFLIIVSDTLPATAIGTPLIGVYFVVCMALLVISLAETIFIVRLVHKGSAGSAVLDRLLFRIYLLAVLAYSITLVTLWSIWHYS
Excerpt: as §1, §2, §3, §4

NCCc1c[nH]c2ccc(O)cc12 [5-HT, 5-hydroxytryptamine]
5-HT induced current [1]: large currents | nH (Hill coefficient) [2]: 2.6±0.4 | 10–90% Activation rise time ([2]; 10 µM 5-HT): 621 ± 47 ms | Imax (peak current) ([2]; 10 µM 5-HT, Xenopus oocytes, -60 mV): 6300±800 nA | Desensitization time constant τ ([2]; prolonged 10 µM 5-HT, may be limited by solution exchange): 8 ± 2 s | 5-HT induced current [3]: no currents were observed | Peak current [4]: 320±25 nA | nH (Hill coefficient) [5]: 3.7±0.8 | 10–90% Activation rise time ([5]; 10 µM 5-HT): 881 ± 110 ms | Desensitization time constant τ ([5]; prolonged 10 µM 5-HT): 62 ± 4 s | Radiolabeled 5-HT bound per oocyte (5-HT3A-A7): 0.40±0.08 pmol per oocyte | 5-HT induced current [6]: 730±45 nA
